Source: DBAASP
In brackets after ≈: the same amount, converted by molar mass. Several values for one entry are separate records, joined by “and”; a condition that tells them apart may be missing. Identical values can stand only once.

Experiments:
Assay in all cases: ≥ marks a high value that may be exact or a test limit, other limits are often not marked, values filed in µg/mL are converted to µM
[1] = tested on: Aspergillus awamori KCTC 6915
[2] = tested on: Aspergillus flavus KCTC 6905
[3] = tested on: Aspergillus fumigatus KCTC 6145
[4] = tested on: Aspergillus parasiticus KCTC 6598
[5] = tested on: Bacillus subtilis KCTC 1998
[6] = tested on: Candida albicans KCTC 7270
[7] = tested on: Escherichia coli ATCC 25922
[8] = tested on: Listeria monocytogenes KCTC 3710
[9] = tested on: Proteus vulgaris KCTC 2433
[10] = tested on: Pseudomonas aeruginosa ATCC 15692
[11] = tested on: Salmonella typhimurium KCTC 1926
[12] = tested on: Staphylococcus aureus ATCC 25923
[13] = tested on: Staphylococcus epidermidis ATCC 12228
[14] = tested on: Trichosporon beigelii KCTC 7707
[15] = tested on: Candida albicans ATCC 36232
[16] = tested on: Escherichia coli ATCC 2592
[17] = tested on: Micrococcus luteus ATCC 9341
[18] = tested on: Pseudomonas aeruginosa ATCC 9027
[19] = tested on: Staphylococcus aureus 1550
[20] = tested on: Staphylococcus aureus ATCC 6538
[21] = tested on: Acinetobacter baumannii ATCC 19606
[22] = tested on: Acinetobacter baumannii KCTC 2508
Acinetobacter baumannii = tested on: Acinetobacter baumannii
[23] = tested on: Bacillus cereus KCTC 1012
[24] = tested on: Bacillus subtilis AB91021
Enterococcus faecium = tested on: Enterococcus faecium
Escherichia coli AB94012 = tested on: Escherichia coli AB94012
[25] = tested on: Klebsiella pneumoniae KCTC 2208
[26] = tested on: Micrococcus luteus AB93113
[27] = tested on: Pseudomonas aeruginosa 3592
[28] = tested on: Pseudomonas aeruginosa 4007
[29] = tested on: Pseudomonas aeruginosa 5018
[30] = tested on: Pseudomonas aeruginosa 671973
[31] = tested on: Pseudomonas aeruginosa AB93066
[32] = tested on: Salmonella enterica subsp. enterica serovar Typhimurium ATCC 14028
[33] = tested on: Staphylococcus aureus AB208193
[34] = tested on: Staphylococcus aureus AB94004
[35] = tested on: Staphylococcus aureus ATCC 29213
[36] = tested on: Staphylococcus aureus P1374
[37] = tested on: Staphylococcus aureus P1381
[38] = tested on: Staphylococcus epidermidis AB208187
[39] = tested on: Staphylococcus epidermidis AB208188
Streptococcus agalactiae = tested on: Streptococcus agalactiae
Bacillus subtilis = tested on: Bacillus subtilis
Escherichia coli HB101 = tested on: Escherichia coli HB101
Pseudomonas aeruginosa = tested on: Pseudomonas aeruginosa
Salmonella typhimurium = tested on: Salmonella typhimurium
[40] = tested on: Klebsiella pneumoniae ATCC 700603
[41] = tested on: Pseudomonas aeruginosa ATCC 27853
[42] = tested on: Pseudomonas aeruginosa PA006
[43] = tested on: Pseudomonas aeruginosa PAO1
[44] = tested on: Pseudomonas aeruginosa Pa1-SA2
[45] = tested on: Pseudomonas aeruginosa Pa4-SA2
[46] = tested on: Staphylococcus aureus ATCC 29313

## CC[C@H](C)[C@H](NC(=O)[C@H](CCCCN)NC(=O)[C@H](CCCCN)NC(=O)[C@H](C)NC(=O)[C@H](CC(C)C)NC(=O)[C@H](CCCCN)NC(=O)[C@H](CCCCN)NC(=O)[C@H](CC(C)C)NC(=O)[C@H](CCCN=C(N)N)NC(=O)[C@H](CCCCN)NC(=O)[C@H](C)N)C(=O)N[C@@H](Cc1c[nH]c2ccccc12)C(=O)N[C@@H](CCCCN)C(=O)N[C@@H](Cc1c[nH]c2ccccc12)C(=O)N[C@@H](CC(C)C)C(N)=O [AKRLKKLAKKIWKWL]
[1]
  MIC: ≥ 64 µM
[2]
  MIC: ≥ 64 µM
[3]
  MIC: 16 µM (≈ 30.6 µg/mL)
[4]
  MIC: 16 µM (≈ 30.6 µg/mL)
[5]
  MIC: 8 µM (≈ 15.3 µg/mL)
[6]
  MIC: 16 µM (≈ 30.6 µg/mL)
[7]
  MIC: 32 µM (≈ 61.1 µg/mL)
[8]
  MIC: 16 µM (≈ 30.6 µg/mL)
[9]
  MIC: 11.3 µM (≈ 21.6 µg/mL)
[10]
  MIC: ≥ 32 µM
[11]
  MIC: 8 µM (≈ 15.3 µg/mL)
[12]
  MIC: 16 µM (≈ 30.6 µg/mL)
[13]
  MIC: 8 µM (≈ 15.3 µg/mL)
[14]
  MIC: ≥ 128 µM

## CC(C)[C@H](NC(=O)[C@H](CCCCN)NC(=O)[C@H](CCCCN)NC(=O)[C@H](CCCCN)NC(=O)[C@H](CCCCN)NC(=O)[C@H](CCCCN)NC(=O)[C@@H](NC(=O)[C@@H](NC(=O)[C@@H](N)Cc1ccccc1)C(C)C)C(C)C)C(=O)N[C@@H](Cc1ccccc1)C(=O)O [FVVKKKKKVF]
[15]
  MIC: ≥ 80 µM
[16]
  MIC: ≥ 80 µM
[17]
  MIC: ≥ 80 µM
[18]
  MIC: > 80 µM
[19]
  MIC: ≥ 80 µM
[20]
  MIC: > 80 µM

## CC[C@H](C)[C@H](NC(=O)CN)C(=O)N[C@@H](CC(C)C)C(=O)NCC(=O)N[C@@H](CCCCN)C(=O)N[C@@H](CC(C)C)C(=O)N[C@@H](Cc1c[nH]c2ccccc12)C(=O)N[C@@H](CCC(=O)O)C(=O)NCC(=O)N[C@H](C(=O)N[C@@H](CCCCN)C(=O)N[C@@H](CO)C(=O)N[C@H](C(=O)N[C@@H](Cc1ccccc1)C(N)=O)[C@@H](C)CC)C(C)C [GILGKLWEGVKSIF]
[21]
  MIC: 3.23 µM (≈ 5 µg/mL)
[22]
  MIC: 3.13 µM and 6.25 µM
Acinetobacter baumannii
  MIC: 4.14 µM and 3.13 µM and 6.25 µM
[23]
  MIC: 12.5 µM (≈ 19.3 µg/mL)
[24]
  MIC: 8.08 µM (≈ 12.5 µg/mL)
Enterococcus faecium
  MIC: 8.08 µM (≈ 12.5 µg/mL)
Escherichia coli AB94012
  MIC: ≥ 64.6 µM
[25]
  MIC: 12.5 µM (≈ 19.3 µg/mL)
[8]
  MIC: 3.13 µM (≈ 4.84 µg/mL)
[26]
  MIC: 8.08 µM (≈ 12.5 µg/mL)
[27]
  MIC: 6.25 µM (≈ 9.66 µg/mL)
[28]
  MIC: 25 µM (≈ 38.6 µg/mL)
[29]
  MIC: 12.5 µM (≈ 19.3 µg/mL)
[30]
  MIC: 3.13 µM (≈ 4.84 µg/mL)
[31]
  MIC: ≥ 64.6 µM
[18]
  MIC: > 64.6 µM
[32]
  MIC: 3.13 µM (≈ 4.84 µg/mL)
[33]
  MIC: 8.08 µM (≈ 12.5 µg/mL)
[34]
  MIC: 8.08 µM (≈ 12.5 µg/mL)
[12]
  MIC: 4.04 µM and 3.13 µM
[35]
  MIC: 6.25 µM (≈ 9.66 µg/mL)
[20]
  MIC: 8.08 µM (≈ 12.5 µg/mL)
[36]
  MIC: 16.2 µM (≈ 25 µg/mL)
[37]
  MIC: 8.08 µM (≈ 12.5 µg/mL)
[38]
  MIC: 16.2 µM (≈ 25 µg/mL)
[39]
  MIC: 16.2 µM (≈ 25 µg/mL)
Streptococcus agalactiae
  MIC: 16.2 µM (≈ 25 µg/mL)

## CC[C@H](C)[C@H](NC(=O)[C@@H](NC(=O)[C@@H]1CCCN1C(=O)[C@@H](NC(=O)[C@@H]1CCCN1C(=O)[C@H](CCCCN)NC(=O)[C@H](CCCCN)NC(=O)[C@H](CO)NC(=O)CN)C(C)C)[C@@H](C)CC)C(=O)N[C@@H](Cc1ccc(O)cc1)C(=O)N[C@H]1CSSC[C@@H](C(=O)N[C@@H](CCC(N)=O)C(=O)N[C@@H](CCCN=C(N)N)C(=O)N[C@@H](CCSC)C(=O)O)NC(=O)[C@H](CCCCN)NC(=O)CNC(=O)[C@H]([C@@H](C)O)NC(=O)[C@H](C)NC(=O)[C@H](C)NC(=O)[C@H](CCCN=C(N)N)NC(=O)[C@H](CCCN=C(N)N)NC(=O)[C@H](CC(N)=O)NC1=O [GSKKPVPIIYCNRRAATGKCQRM]
Bacillus subtilis
  MIC: 20.8 µM (≈ 53.6 µg/mL)
Escherichia coli HB101
  MIC: 2.6 µM (≈ 6.7 µg/mL)
Pseudomonas aeruginosa
  MIC: 7.35 µM (≈ 18.9 µg/mL)
Salmonella typhimurium
  MIC: 2.6 µM (≈ 6.7 µg/mL)

## CC[C@H](C)[C@H](NC(=O)[C@H](CCCCN)NC(=O)CNC(=O)[C@H](CCSC)NC(=O)[C@H](C)NC(=O)[C@H](Cc1cnc[nH]1)NC(=O)[C@H](C)NC(=O)[C@@H](NC(=O)[C@H](CC(C)C)NC(=O)[C@H](CCC(N)=O)NC(=O)[C@H](CCCCN)NC(=O)CNC(=O)[C@H](C)NC(=O)CNC(=O)[C@H](CCCCN)NC(=O)[C@@H](NC(=O)[C@@H](NC(=O)[C@H](CC(=O)O)NC(=O)[C@H](Cc1ccccc1)NC(=O)[C@@H](NC(=O)CN)C(C)C)[C@@H](C)CC)[C@@H](C)CC)[C@@H](C)CC)C(=O)N[C@@H](C)C(=O)N[C@@H](CCC(=O)O)C(=O)N[C@@H](CCCCN)C(=O)N[C@H](C(N)=O)C(C)C [GVFDIIKGAGKQLIAHAMGKIAEKV]
[7]
  MIC: 77.1 µM (≈ 200 µg/mL)
[40]
  MIC: 308 µM (≈ 800 µg/mL)
[41]
  MIC: > 197 µM
[42]
  MIC: 6.17 µM (≈ 16 µg/mL)
[43]
  MIC: 197 µM (≈ 512 µg/mL)
[44]
  MIC: ≥ 197 µM
[45]
  MIC: ≥ 98.6 µM
[32]
  MIC: 308 µM (≈ 800 µg/mL)
[46]
  MIC: ≥ 308 µM
